US5624923A, “Tricyclic diazepine vasopressin antagonists and oxytocin antagonists” (priority 1995, dated 1997)
“And” between values parts separate entries of the source, which are not always exact repeats. Equal values may be shown once. One block for each compound: values may come before it.

Legend:
oxytocin receptors = molecular target: T1, oxytocin receptors (Rattus norvegicus, UniProt P70536); experiment: Oxytocin Receptor Binding; conditions: for inhibition at 10 µM: [3H]oxytocin; for IC50: 1.0 nM [3H]oxytocin
T1 construct: The uteri are dissected out, cleaned of fat and connective tissues; from tissue; host or cells: uterus of DES-treated female Sprague-Dawley rats
T1 sequence (P70536 1-388): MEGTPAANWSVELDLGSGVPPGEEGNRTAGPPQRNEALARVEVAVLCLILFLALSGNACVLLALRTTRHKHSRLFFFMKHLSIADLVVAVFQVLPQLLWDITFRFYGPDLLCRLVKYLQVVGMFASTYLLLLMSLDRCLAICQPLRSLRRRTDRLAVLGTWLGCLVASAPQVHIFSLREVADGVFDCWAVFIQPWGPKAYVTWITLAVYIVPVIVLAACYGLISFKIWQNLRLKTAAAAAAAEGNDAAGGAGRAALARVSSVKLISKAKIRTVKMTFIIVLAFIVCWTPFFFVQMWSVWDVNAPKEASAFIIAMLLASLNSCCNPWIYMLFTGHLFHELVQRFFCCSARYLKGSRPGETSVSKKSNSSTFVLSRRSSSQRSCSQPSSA
Description: Oxytocin Receptor Binding
Female Sprague-Dawley rats weighing approximately 200-250 g are injected intramuscularly (i.m.) with 0.3 mg/kg of body weight of diethylstilbestrol (DES). The rats are sacrificed 18 hours later under pentobarbital anesthesia. The uteri are dissected out, cleaned of fat and connective tissues and rinsed in 50 ml of normal saline. The tissue pooled from six rats is homogenized in 50 ml of […] Tris.HCl, containing 0.5 mM dithiothreitol and 1.0 mM EDTA, adjusted to pH 7.4, using a polytron at setting 6 with three passes of 10 sec each. The homogenate is passed through two (2) layers of cheesecloth and the filtrate centrifuged at 1000× g for 10 min. The clear supernatant is removed and recentrifuged at 165,000× g for 30 min. The resulting pellet containing the oxytocin receptors is resuspended in 50.0 mM Tris.HCl containing 5.0 mM MgCl2 at pH 7.4, to give a protein concentration of 2.5 mg/ml of tissue suspension. This preparation is used in subsequent binding assays with [^3 H]Oxytocin.
Binding of 3,5-[^3 H]Oxytocin ([^3 H]OT) to its receptors is done in microtiter plates using [^3 H]OT, at various concentrations, in an assay buffer of 50.0 mM Tris.HCl, pH 7.4 and containing 5.0 mM MgCl2, and a mixture of protease inhibitors: BSA, 0.1 mg; aprotinin, 1.0 mg; 1,10-phenanthroline, 2.0 mg; […], 10.0 mg; and PMSF, 0.3 mg per 100 ml of buffer solution. Non-specific binding is determined in the presence of 1.0 uM unlabeled OT. The binding reaction is terminated after 60 min , at 22° C. by rapid filtration through glass fiber filters using a Brandel® cell harvester (Biomedical Research and Development Laboratories, Inc., Gaithersburg, Md.). Competition experiments are conducted at equilibrium using 1.0 nM [^3 H]OT and varying the concentration of the displacing agents. The concentrations of agent displacing 50% of [^3 H]OT at its sites (IC50) are calculated by a computer assisted LUNDON-2 program (LUNDON SOFTWARE INC., Ohio, USA).

Vasopressin V2 = Vasopressin V2 Antagonist Activity in Conscious Hydrated Rats; type: in vivo, rat; conditions: AVP 0.4 μg/kg i.p.
Description: Vasopressin V2 Antagonist Activity in Conscious Hydrated Rats
Conscious hydrated rats are treated with compounds under study from 0.1 to 100 mg/kg orally or vehicle. Two to four rats are used for each compound. One hour later, arginine vasopressin (AVP, antidiuretic hormore, ADH) dissolved in peanut oil is administered at 0.4 μg/kg intraperitoneally. Two rats in each test would not receive arginine vasopressin but only the vehicle (peanut oil) to serve as water-loading control. Twenty minutes later each rat is given 30 mL/kg of deionized water orally by gavage and is placed individually in a metabolic cage equipped with a funnel and a graduated glass cylinder to collect urine for four hours. Urine volume is measured and osmolality analyzed by use of a Fiske One-Ten osmometer (Fiske Assoc., Norwood, Mass., USA). Urinary sodium, potassium, and chloride are analyzed by use of ion-specific electrodes in a Beckman E3 (Electrolyte 3) Analyzer.

Vasopressin V1 = Vasopressin V1 Antagonist Activity in Conscious Rats (vasopressin vasopressor response); type: in vivo, rat; set-up: Average Change: unit not given here; conditions: SHR
Description: Vasopressin V1 Antagonist Activity in Conscious Rats
Conscious rats are restrained in a supine position with elastic tape. The area at the base of the tail is locally anesthetized by subcutaneous infiltration with 2% procaine (0.2 ml). Using aseptic technique the ventral caudal tail artery is isolated and a cannula made of PE 10 and 20 (heat-fused) tubing is passed into the lower abdominal aorta. The cannula is secured, heparinized (1000 i.u./cc), sealed and the wound closed with one or two stitches of Dexon 4-0. The caudal vein is also cannulated in the same manner for intravenous drug administration. The duration of the surgery is approximately 5 minutes. Additional local anesthesia (2% procaine or lidocaine) is provided as needed.
The animals are placed in plastic restraining cages in an upright position. The cannula is attached to a Statham P23Db pressure transducer and pulsatile blood pressure is recorded. […] The vasopressin injections are repeated 30,60,90,120,180,240 and 300 min. later. Percentage of antagonism by the compound is calculated using the pre-drug vasopressin vasopressor response as 100%.

[1] = 10 mg/kg i.v., VAS 0.01 i.u./kg, 60 min
[2] = 10 mg/kg i.v., VAS 0.01 i.u./kg, 90 min
[3] = 10 mg/kg i.v., VAS 0.01 i.u./kg, 120 min
[4] = 10 mg/kg i.v., VAS 0.01 i.u./kg, 180 min
[5] = 10 mg/kg i.v., VAS 0.01 i.u./kg, 240 min
[6] = 10 mg/kg i.v., VAS 0.01 i.u./kg, 300 min
[7] = 10 mg/kg i.v., VAS 0.02 i.u./kg, 60 min
[8] = 10 mg/kg i.v., VAS 0.02 i.u./kg, 90 min
[9] = 10 mg/kg i.v., VAS 0.02 i.u./kg, 120 min
[10] = 10 mg/kg i.v., VAS 0.02 i.u./kg, 180 min
[11] = 10 mg/kg i.v., VAS 0.02 i.u./kg, 240 min
[12] = 10 mg/kg i.v., VAS 0.02 i.u./kg, 300 min
[13] = 20 mg/kg i.v., VAS 0.01 i.u./kg, 60 min
[14] = 20 mg/kg i.v., VAS 0.01 i.u./kg, 90 min
[15] = 20 mg/kg i.v., VAS 0.01 i.u./kg, 120 min
[16] = 20 mg/kg i.v., VAS 0.01 i.u./kg, 180 min
[17] = 20 mg/kg i.v., VAS 0.01 i.u./kg, 240 min
[18] = 20 mg/kg i.v., VAS 0.01 i.u./kg, 300 min
[19] = 20 mg/kg i.v., VAS 0.02 i.u./kg, 60 min
[20] = 20 mg/kg i.v., VAS 0.02 i.u./kg, 90 min
[21] = 20 mg/kg i.v., VAS 0.02 i.u./kg, 120 min
[22] = 20 mg/kg i.v., VAS 0.02 i.u./kg, 180 min
[23] = 20 mg/kg i.v., VAS 0.02 i.u./kg, 240 min
[24] = 20 mg/kg i.v., VAS 0.02 i.u./kg, 300 min

inhibition at 10 µM (oxytocin receptors): 11%
Compound: O=C(O)c1ccc(NC(=O)c2ccc(Cl)cc2Cl)cc1Cl [Example 429, 4-[(2,4-Dichlorobenzoyl)amino]-2-chlorobenzoic acid]

Compound: O=C(Nc1ccc(C(=O)N2Cc3cccn3-c3ccccc32)cc1)c1cc(Cl)ccc1Cl [Example 16, N-[4-(pyrrolo[1,2-a]quinoxalin-5(4H)-ylcarbonyl)phenyl]-2,5-dichloro-benzamide]
Osmolality (Vasopressin V2; 10 mg/kg orally): 1242 mOsm/kg
Urine Volume (Vasopressin V2; 10 mg/kg orally): 5.5 ml/4 hrs
Osmolality (Vasopressin V2; 30 mg/kg orally): 1295 mOsm/kg
Urine Volume (Vasopressin V2; 30 mg/kg orally): 8 ml/4 hrs

inhibition at 10 µM (oxytocin receptors): 19%
Compound: Cc1cc(C(=O)O)cc(C)c1NC(=O)c1ccc(Cl)cc1Cl [Example 432, 4-[(2,4-dichlorobenzoyl)amino]-3,5-dimethylbenzoic acid]

inhibition at 10 µM (oxytocin receptors): 12%
Compound: Cc1ccccc1C(=O)Nc1ccc(C(=O)O)cc1Cl [Example 433, 4-[(2-methylbenzoyl)amino]-3-chloro-benzoic acid]

IC50 (oxytocin receptors): 3.1 µM
inhibition at 10 µM (oxytocin receptors): 77%
Compound: COc1cc(C(=O)N2Cc3cccn3Cc3ccccc32)ccc1N [Example 460, 10,11-Dihydro-10-(4-amino-3-methoxybenzoyl)-5H-pyrrolo[2,1-c][1,4]benzodiazepine]

inhibition at 10 µM (oxytocin receptors): 32%
Compound: Cc1ccc(F)cc1C(=O)Nc1ccc(C(=O)O)cc1Cl [Example 436, 4-[(5-fluoro-2-methylbenzoyl)amino]-3-chlorobenzoic acid]

inhibition at 10 µM (oxytocin receptors): 21%
Compound: CCOC(=O)c1ccc2n1Cc1ccccc1N(C(=O)c1ccc([N+](=O)[O-])c(C)c1)C2 [Example 444, ethyl 10,11-dihydro-10-(3-methyl-4-nitrobenzoyl)-5H-pyrrolo[2,1-c][1,4]-benzodiazepine-3-carboxylate]

inhibition at 10 µM (oxytocin receptors): 10%
Compound: Cc1c(F)cccc1C(=O)Nc1ccc(C(=O)O)cc1Cl [Example 435, 4-[(3-fluoro-2-methylbenzoyl)amino]-3-chlorobenzoic acid]

inhibition at 10 µM (oxytocin receptors): 36%
Compound: O=C(c1ccc([N+](=O)[O-])cc1Cl)N1Cc2ccc(C(=O)C(F)(F)F)n2Cc2ccccc21 [Example 452, 10,11-dihydro-10-(2-chloro-4-nitro-benzoyl)[3-(trifluoroacetyl)]-5H-pyrrolo[2,1-c][1,4]benzodiazepine]

IC50 (oxytocin receptors): 8.5 µM
inhibition at 10 µM (oxytocin receptors): 55%
Compound: CCOC(=O)c1ccc2n1Cc1ccccc1N(C(=O)c1ccc(N)c(C)c1)C2 [Example 463, ethyl 10,11-dihydro-10-(4-amino-3-methylbenzoyl)-5H-pyrrolo[2,1-c]-[1,4]benzodiazepine-3-carboxylate]

inhibition at 10 µM (oxytocin receptors): 18%
Compound: Cc1ccccc1C(=O)Nc1c(C)cc(C(=O)O)cc1C [Example 431, 4-[(2-methylbenzoyl)amino]-3,5-di-methylbenzoic acid]

inhibition at 10 µM (oxytocin receptors): 16%
Compound: Cc1ccccc1C(=O)Nc1ccc(C(=O)O)c(Cl)c1 [Example 430, 4-[(2-methylbenzoyl)amino]-2-chloro-benzoic acid]

inhibition at 10 µM (oxytocin receptors): 28%
Compound: Cc1ccc(F)cc1C(=O)Nc1ccc(C(=O)O)c(Cl)c1 [Example 419, 4-[(5-fluoro-2-methylbenzoyl)amino]-2-chlorobenzoic acid]

inhibition at 10 µM (oxytocin receptors): 39%
Compound: Cc1c(F)cccc1C(=O)Nc1ccc(C(=O)O)cc1 [Example 418, 4-[(3-fluoro-2-methylbenzoyl)amino]-benzoic acid]

Compound: Cc1cc(C(=O)N2Cc3cccn3Cc3ccccc32)ccc1N [Example 95, 10,11-Dihydro-10-(4-amino-3-methylbenzoyl)-5H-pyrrolo[2,1-c][1,4]benzodiazepine]
% Inhibition (Vasopressin V1; 10 mg/kg i.v., VAS 0.01 i.u./kg, 30 min): 35% and 65%
% Inhibition (Vasopressin V1; [1]): 78%
Average Change (Vasopressin V1; [1]): 7
% Inhibition (Vasopressin V1; [2]): 58%
Average Change (Vasopressin V1; [2]): 13.5
% Inhibition (Vasopressin V1; [3]): 58%
Average Change (Vasopressin V1; [3]): 13.5
% Inhibition (Vasopressin V1; [4]): 52%
Average Change (Vasopressin V1; [4]): 15.5
% Inhibition (Vasopressin V1; [5]): 43%
Average Change (Vasopressin V1; [5]): 18.5
% Inhibition (Vasopressin V1; [6]): 52%
Average Change (Vasopressin V1; [6]): 15.5
% Inhibition (Vasopressin V1; [7]): 78%
Average Change (Vasopressin V1; [7]): 12.5
% Inhibition (Vasopressin V1; [8]): 72%
Average Change (Vasopressin V1; [8]): 16
% Inhibition (Vasopressin V1; [9]): 70%
Average Change (Vasopressin V1; [9]): 17.5
% Inhibition (Vasopressin V1; [10]): 72%
Average Change (Vasopressin V1; [10]): 16
% Inhibition (Vasopressin V1; [11]): 31%
Average Change (Vasopressin V1; [11]): 39.5
% Inhibition (Vasopressin V1; [12]): 27%
Average Change (Vasopressin V1; [12]): 42
% Inhibition (Vasopressin V1; [13]): 67%
Average Change (Vasopressin V1; [13]): 15
% Inhibition (Vasopressin V1; [14]): 70%
Average Change (Vasopressin V1; [14]): 13.5
% Inhibition (Vasopressin V1; [15]): 47%
Average Change (Vasopressin V1; [15]): 24
% Inhibition (Vasopressin V1; [16]): 48%
Average Change (Vasopressin V1; [16]): 23.5
% Inhibition (Vasopressin V1; [17]): 53%
Average Change (Vasopressin V1; [17]): 21.5
% Inhibition (Vasopressin V1; [18]): 46%
Average Change (Vasopressin V1; [18]): 24.5
% Inhibition (Vasopressin V1; [19]): 68%
Average Change (Vasopressin V1; [19]): 19.5
% Inhibition (Vasopressin V1; [20]): 61%
Average Change (Vasopressin V1; [20]): 24
% Inhibition (Vasopressin V1; [21]): 53%
Average Change (Vasopressin V1; [21]): 28.5
% Inhibition (Vasopressin V1; [22]): 44%
Average Change (Vasopressin V1; [22]): 34
% Inhibition (Vasopressin V1; [23]): 44%
Average Change (Vasopressin V1; [23]): 34
% Inhibition (Vasopressin V1; [24]): 39%
Average Change (Vasopressin V1; [24]): 37.5
